According to PubChem BioAssay AID1963443 (Molecular Pharmacology Branch, DTP, NCI, 2024):

System: MDA-MB-231 complex spheroids, growth inhibition
Assay: Anticancer human tumor MDA-MB-231 cell line growth inhibition [Asc];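 further: spheroids exposed to compounds for 7 days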
Conditions: for IC50: curve of first compound; for viability, T/C: stronger effect = lower value
Description: Multicellular complex tumor spheroid response to apoptosis pathway targeting inhibitors Alrizomadlin, Pelcitoclax, and Dasminapant in combination with a variety of drugs and investigational agents in selected tumor cell lines
The MDM2 inhibitor alrizomadlin, the Bcl-2/Bcl-xL inhibitor pelcitoclax, and the IAPs inhibitor dasminapant were evaluated both individually and in combination with standard of care and investigational anticancer small molecules within a complex spheroid model of solid tumors. . Complex spheroids include a stromal component modeled by human endothelial cells (HUVEC) and fibroblasts modeled by human mesenchymal stem cells (MSCs). The concentration ranges selected for each drug and investigational agent were based upon clinically achievable concentrations if the clinical Cmax of the agent was known.
Compounds. The drugs and investigational agents: alrizomadlin (APG-115; NSC831270), pelcitoclax (APG-1252; NSC835773), dasminapant (APG-1387;NSC834197), TAK-243 (NSC785004), copanlisib (NSC809693), olaparib (NSC753686), talazoparib (NSC767125), cobimetinib (NSC 768068), eltanexor (KPT-8602, NSC 794443), abemaciclib (NSC 768073), sotorasib (NSC818433), adagrasib (NSC 831453), MRTX-1133 (NSC 836407), Iadademestat (ORY1001, NSC 806812), and RMC-4630 (NSC839698), were obtained from the NCI Developmental Therapeutics Program Chemical Repository. The FDA-approved anticancer drug set is available from the Developmental Therapeutics Program at https://dtp.cancer.gov/organization/dscb/obtaining/available plates.htm. […] The stock solutions were prepared in dimethyl sulfoxide (DMSO, Sigma-Aldrich, St. Louis, MO, cat. D2650) at 800-fold the tested concentration and stored at -70 degrees C prior to their use. All drugs and investigational agents were tested over a range starting from a high concentration at or near the clinical Cmax and decreasing in half-log increments. If the clinical Cmax for an agent had not been determined, the highest concentration tested was 10 microM.
The patient-derived cancer (PDC) cell lines include five colon adenocarcinomas: 186277-243-T-J2-PDC, 616215-338-R-J1-PDC, 439559-082-T-J2-PDC, 463943-066-T-J2-PDC, and 519858-162-T-J1-PDC; three pancreatic carcinomas: 323965-272-R-J2-PDC, 521955-158-R6-J3-PDC, and 521955-158-R2-J5-PDC; two uterine sarcomas: 327498-152-R-J2-PDC and 993429-296-R-J1-PDC; two rhabdomyosarcomas: 755483-174-R-J1-PDC and 772245-204-R-J1-PDC; two soft tissue sarcomas: 126254-015-R-J1-PDC and 494315-158-R-J1-PDC; two malignant fibrous histiocytomas: 317291-083-R-J1-PDC and 596521-263-R-J1-PDC; two breast carcinomas: 171881-019-R-J1-PDC and 885512-296-R-J2-PDC; and one ovarian carcinoma: 6556581-035-R-J-PDC were obtained from the NCI PDMR, (https://pdmr.cancer.gov). The established cell lines HSSY-2 synovial sarcoma (RRID:CVCL 8719), SYO-1 synovial sarcoma (RRID:CVCL_7146), MPNST malignant peripheral neural sheath tumor were obtained from the Sloan Kettering Institute. The following established cell lines were purchased from the American Type Culture Collection (ATCC, Manassas, VA), Sor the received from the NCI repository:, PANC-1 pancreatic carcinoma (CRL-1469, RRID:CVCL_0480), OVCAR-5 ovarian carcinoma (RRID:CVCL_1628), OVCAR-8 ovarian carcinoma (RRID:CVCL_1629), , MCF-7 breast carcinoma (CRL-12584, RRID:CVCL_0031), MDA-MB-231 breast carcinoma (CRL-12532, RRID:CVCL_0062), NCI-H1876 small cell lung carcinoma (CRL-5902, RRID:CVCL_1503), NCI-H510A small cell lung carcinoma (HTB-184, RRID:CVCL_1565), NCI-H1417 (CRL-5869, RRID:CVCL_1469), and NCI-H196 small cell lung carcinoma (CRL-5823, RRID:CVCL_1509). Dr. Peter Houghton (Greehey Children's Cancer Research Institute, University of Texas Health Science Center, San Antonio, TX) provided Rh-18 rhabdomyosarcoma (RRID:CVCL_1659). Pooled donor human umbilical vein endothelial cells (HUVEC, Lonza, cat. CC-2519) and human mesenchymal stem cells (hMSC, Lonza, cat. PT-2501) were purchased from Lonza (Walkersville, MD).
Cell Culture. […]

O=C(c1cc(Cc2n[nH]c(=O)c3ccccc23)ccc1F)N1CCN(C(=O)C2CC2)CC1 + CNC(C)C(=O)NC1CN(S(=O)(=O)c2cccc(S(=O)(=O)N3CCC4CCC(C(=O)NC(c5ccccc5)c5ccccc5)N4C(=O)C(NC(=O)C(C)NC)C3)c2)CCC2CCC(C(=O)NC(c3ccccc3)c3ccccc3)N2C1=O
IC50 (second compound 0.01 µM): < 31.6 nM | IC50 (second compound 0.0316 µM): < 31.6 nM | IC50 (second compound 0.1 µM): < 31.6 nM | IC50 (second compound 0.316 µM): < 31.6 nM | IC50 (second compound 1 µM): < 31.6 nM | viability, T/C (second compound 0.01 µM, first compound 0.0316 µM): 2.12% | viability, T/C (second compound 0.01 µM, first compound 0.1 µM): 2.15% | viability, T/C (second compound 0.01 µM, first compound 0.316 µM): 2.12% | viability, T/C (second compound 0.01 µM, first compound 1 µM): 2.46% | viability, T/C (second compound 0.01 µM, first compound 3.16 µM): 1.41% | viability, T/C (second compound 0.01 µM, first compound 10 µM): 1.59% | viability, T/C (second compound 0.0316 µM, first compound 0.0316 µM): 1.57% | viability, T/C (second compound 0.0316 µM, first compound 0.1 µM): 1.69% | viability, T/C (second compound 0.0316 µM, first compound 0.316 µM): 1.39% | viability, T/C (second compound 0.0316 µM, first compound 1 µM): 1.53% | viability, T/C (second compound 0.0316 µM, first compound 3.16 µM): 1.35% | viability, T/C (second compound 0.0316 µM, first compound 10 µM): 1.61% | viability, T/C (second compound 0.1 µM, first compound 0.0316 µM): 1.25% | viability, T/C (second compound 0.1 µM, first compound 0.1 µM): 1.35% | viability, T/C (second compound 0.1 µM, first compound 0.316 µM): 1.63% | viability, T/C (second compound 0.1 µM, first compound 1 µM): 1.07% | viability, T/C (second compound 0.1 µM, first compound 3.16 µM): 1.04% | viability, T/C (second compound 0.1 µM, first compound 10 µM): 1.01% | viability, T/C (second compound 0.316 µM, first compound 0.0316 µM): 1.03% | viability, T/C (second compound 0.316 µM, first compound 0.1 µM): 1.15% | viability, T/C (second compound 0.316 µM, first compound 0.316 µM): 1.4% | viability, T/C (second compound 0.316 µM, first compound 1 µM): 1.07% | viability, T/C (second compound 0.316 µM, first compound 3.16 µM): 0.98% | viability, T/C (second compound 0.316 µM, first compound 10 µM): 0.83% | viability, T/C (second compound 1 µM, first compound 0.0316 µM): 1.05% | viability, T/C (second compound 1 µM, first compound 0.1 µM): 1.48% | viability, T/C (second compound 1 µM, first compound 0.316 µM): 1.17% | viability, T/C (second compound 1 µM, first compound 1 µM): 0.97% | viability, T/C (second compound 1 µM, first compound 3.16 µM): 0.82% | viability, T/C (second compound 1 µM, first compound 10 µM): 0.96%

Cc1nc(N2CCC3(CC2)COC(C)C3N)c(CO)nc1Sc1ccnc(N)c1Cl (stereo not given) + Cc1c(S(C)(=O)=O)c(-c2cc(F)cc(N3CCN(c4ccc(NS(=O)(=O)c5ccc(NC(CCN6CCC(C(=O)OCCCP(=O)(O)O)CC6)CSc6ccccc6)c(S(=O)(=O)C(F)(F)F)c5)cc4)CC3)c2)c(-c2ccc(Cl)cc2)n1C(C)C
IC50 (second compound 0.1 µM): 201 nM | IC50 (second compound 0.316 µM): 249 nM | IC50 (second compound 1 µM): 179 nM | IC50 (second compound 3.16 µM): 162 nM | IC50 (second compound 10 µM): 162 nM | viability, T/C (second compound 0.1 µM, first compound 0.00949 µM): 97.2% | viability, T/C (second compound 0.1 µM, first compound 0.03 µM): 90.9% | viability, T/C (second compound 0.1 µM, first compound 0.0949 µM): 76.8% | viability, T/C (second compound 0.1 µM, first compound 0.3 µM): 37% | viability, T/C (second compound 0.1 µM, first compound 0.949 µM): 1.43% | viability, T/C (second compound 0.1 µM, first compound 3 µM): 0.95% | viability, T/C (second compound 0.316 µM, first compound 0.00949 µM): 108% | viability, T/C (second compound 0.316 µM, first compound 0.03 µM): 99.8% | viability, T/C (second compound 0.316 µM, first compound 0.0949 µM): 88.9% | viability, T/C (second compound 0.316 µM, first compound 0.3 µM): 44.1% | viability, T/C (second compound 0.316 µM, first compound 0.949 µM): 1.42% | viability, T/C (second compound 0.316 µM, first compound 3 µM): 1.39% | viability, T/C (second compound 1 µM, first compound 0.00949 µM): 102% | viability, T/C (second compound 1 µM, first compound 0.03 µM): 94% | viability, T/C (second compound 1 µM, first compound 0.0949 µM): 81.6% | viability, T/C (second compound 1 µM, first compound 0.3 µM): 24.7% | viability, T/C (second compound 1 µM, first compound 0.949 µM): 0.73% | viability, T/C (second compound 1 µM, first compound 3 µM): 1.11% | viability, T/C (second compound 3.16 µM, first compound 0.00949 µM): 95.6% | viability, T/C (second compound 3.16 µM, first compound 0.03 µM): 93.4% | viability, T/C (second compound 3.16 µM, first compound 0.0949 µM): 78.7% | viability, T/C (second compound 3.16 µM, first compound 0.3 µM): 17% | viability, T/C (second compound 3.16 µM, first compound 0.949 µM): 1.15% | viability, T/C (second compound 3.16 µM, first compound 3 µM): 0.34% | viability, T/C (second compound 10 µM, first compound 0.00949 µM): 106% | viability, T/C (second compound 10 µM, first compound 0.03 µM): 103% | viability, T/C (second compound 10 µM, first compound 0.0949 µM): 82% | viability, T/C (second compound 10 µM, first compound 0.3 µM): 12.9% | viability, T/C (second compound 10 µM, first compound 0.949 µM): 0.64% | viability, T/C (second compound 10 µM, first compound 3 µM): 0.34%
